Test results taken from PubChem BioAssay AID2060493 (Molecular Pharmacology Branch, DTP, NCI, 2025).

Test system: 616215-338-R-J1-PDC tumor spheroids, viability
Test: Anticancer human tumor 616215-338-R-J1-PDC patient-derived colon adenocarcinoma cell line growth inhibition [GQUAD]
Conditions: spheroids with HUVEC and MSC; for IC50: curve of first compound; for viability, T/C: stronger effect = lower value; active = viability on the fitted dose curve at most 10% of control; inactive = the rest
Text: DNA G-quadruplex Stabilizer Agents in Combinations in Complex Spheroids
A high-throughput screen of multi-cell type tumor spheroids was designed to identify active combinations of DNA G-quadruplex stabilizer agents and targeted small molecules. Complex spheroids include a stromal component modeled by human endothelial cells (HUVEC) and fibroblasts modeled by human mesenchymal stem cells (MSCs). The concentration ranges selected for each drug and investigational agent were based upon clinically achievable concentrations if the clinical Cmax of the agent was known.
Compounds. The drugs and investigational agents: pidnarulex (CX-5461; NSC782164), APTO-253 (NSC789042), BRACO-19 (NSC847499), peposertib (NSC802822), ceralasertib (NSC780249), elimusertib (NSC800525), camonsertib (NSC841442), AZD-1390 (NSC803789), olaparib (NSC753686), talazoparib (NSC767125), ART-558 (NSC835418), sotorasib (NSC818433), MRTX-1133 (NSC836407), SN-38 (NSC673596), topotecan (NSC609699), etoposide (NSC141540), doxorubicin (NSC123127), gemcitabine (NSC613327), 5-fluorouracil (NSC19893), paclitaxel (NSC125973), vemurafenib (NSC761431), panobinostat (NSC761190), R-306465 (JNJ-16241199; NSC773264), adavosertib (NSC754352), TP-3654 (NSC805149), carboplatin (NSC241240), KSQ-4279 (NSC840948), and staurosporine (NSC755774) were obtained from the National Cancer Institute (NCI) Developmental Therapeutics Program Chemical Repository (34). The FDA-approved anticancer drug set is available from the NCI Developmental Therapeutics Program. […] The stock solutions were prepared in dimethyl sulfoxide (DMSO, Sigma-Aldrich, St. Louis, MO, cat. D2650) at 800-fold the tested concentration and stored at -70 degrees C prior to their use. All drugs and investigational agents were tested over a range starting from a high concentration at or near the clinical Cmax and decreasing in half-log increments. If the clinical Cmax for an agent had not been determined, the highest concentration tested was 10 microM.
2.3 Cell Culture. All cells were maintained in an incubator at 37 degrees C and 5% CO2 with 95% humidity. The PDC lines were cultured according to standard operating procedures established by the NCI PDMR. All PDCs were thawed and cultured in Matrigel-coated flasks prepared with a working solution of 1X Ham's F-12 nutrient mix, without supplementation (Invitrogen, cat. 11765054), 100 U/mL penicillin-streptomycin (Invitrogen, cat. 15140122), and 2.5% Matrigel (Corning Inc., cat. 354248) for the first three passages. The 857933-349-R-J2-PDC line was cultured in 6C/Colon 1B media, which includes advanced DMEM/F-12 (Thermo Fisher Scientific, cat. 12634028), 10 mM HEPES (Thermo Fisher Scientific, cat. 15630080), 1X GlutaMAX supplement (Thermo Fisher Scientific, cat. 35050061), 0.1 mg/mL primocin (InvivoGen, cat. ant-pm-2), 10% defined fetal bovine serum, heat inactivated (HyClone Laboratories Inc., cat. SH30070.03HI), 50% L-WRN conditioned media (ATCC, cat. CRL-3276), 1.25 mM N-Acetyl-L-cysteine (Sigma-Aldrich, cat. A9165), 10 mM nicotinamide (Sigma-Aldrich, cat. N0636), 1X B-27 supplement (Thermo Fisher Scientific, cat. 17504044), 1X N-2 supplement (Thermo Fisher Scientific, cat. 17502048), 10 microM Y-27632 dihydrochloride (Tocris Bioscience, cat. 1254), and 50 ng/mL human EGF recombinant protein (Thermo Fisher Scientific, cat. PHG0311). The 485176-168-R4-J1-PDC line was cultured in Panc media, which includes all 6C/Colon 1B media components plus 100 ng/mL human FGF-10 (Thermo Fisher Scientific, cat. 100-26), 500 nM SB-431542 (Selleckchem, cat. S1067), and gastrin (Tocris, cat. 3006).
[…]

[1] = second compound 0.0316 µM, first compound 0.0316 µM
[2] = second compound 0.0316 µM, first compound 0.316 µM
[3] = second compound 0.1 µM, first compound 0.0316 µM
[4] = second compound 0.1 µM, first compound 0.316 µM
[5] = second compound 0.316 µM, first compound 0.0316 µM
[6] = second compound 0.316 µM, first compound 0.316 µM
[7] = second compound 1 µM, first compound 0.0316 µM
[8] = second compound 1 µM, first compound 0.316 µM
[9] = second compound 3.16 µM, first compound 0.0316 µM
[10] = second compound 3.16 µM, first compound 0.316 µM
[11] = second compound 10 µM, first compound 0.0316 µM
[12] = second compound 10 µM, first compound 0.316 µM
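Also: spheroids exposed to agents for 7 days before readout.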
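For viability, T/C in this document: percent viability relative to DMSO vehicle control wells taken as 100%.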

Cc1cccc(N(C)C(=O)C2C(O)CCN2c2nc(C)cc(C(F)(F)F)c2C#N)c1 (centres undefined) + Cc1cnc(CNC(=O)c2c(=O)c3ccc(N4CCCN(C)CC4)nc3n3c2sc2ccccc23)cn1
inactive: viability, T/C [1] 106% | viability, T/C (second compound 0.0316 µM, first compound 0.1 µM) 101% | viability, T/C [2] 109% | viability, T/C (second compound 0.0316 µM, first compound 1 µM) 103% | viability, T/C (second compound 0.0316 µM, first compound 3.16 µM) 95.8% | viability, T/C (second compound 0.0316 µM, first compound 10 µM) 98.6% | viability, T/C [3] 37.9% | viability, T/C (second compound 0.1 µM, first compound 0.1 µM) 68.2% | viability, T/C [4] 56.2% | viability, T/C (second compound 0.1 µM, first compound 1 µM) 80.6% | viability, T/C (second compound 0.1 µM, first compound 3.16 µM) 81.8% | viability, T/C (second compound 0.1 µM, first compound 10 µM) 49% | viability, T/C [5] 50.5% | viability, T/C (second compound 0.316 µM, first compound 0.1 µM) 46.1% | viability, T/C [6] 50.2% | viability, T/C (second compound 0.316 µM, first compound 1 µM) 48.9% | viability, T/C (second compound 0.316 µM, first compound 3.16 µM) 57.9% | viability, T/C (second compound 0.316 µM, first compound 10 µM) 42% | viability, T/C [7] 32.6% | viability, T/C (second compound 1 µM, first compound 0.1 µM) 35.1% | viability, T/C [8] 39.1% | viability, T/C (second compound 1 µM, first compound 1 µM) 31.9% | viability, T/C (second compound 1 µM, first compound 3.16 µM) 38.3% | viability, T/C (second compound 1 µM, first compound 10 µM) 29.3% | viability, T/C [9] 31.7% | viability, T/C (second compound 3.16 µM, first compound 0.1 µM) 27.9% | viability, T/C [10] 33.5% | viability, T/C (second compound 3.16 µM, first compound 1 µM) 30.5% | viability, T/C (second compound 3.16 µM, first compound 3.16 µM) 29.1% | viability, T/C (second compound 3.16 µM, first compound 10 µM) 34.8% | viability, T/C [11] 30.5% | viability, T/C (second compound 10 µM, first compound 0.1 µM) 37% | viability, T/C [12] 31.1% | viability, T/C (second compound 10 µM, first compound 1 µM) 26.7% | viability, T/C (second compound 10 µM, first compound 3.16 µM) 32.2% | viability, T/C (second compound 10 µM, first compound 10 µM) 29.9%
< 31.6 nM: IC50 (second compound 0.1 µM) | IC50 (second compound 0.316 µM) | IC50 (second compound 1 µM) | IC50 (second compound 3.16 µM) | IC50 (second compound 10 µM)
> 10000 nM: IC50 (second compound 0.0316 µM)

Cn1ncnc1[C@H]1c2n[nH]c(=O)c3cc(F)cc(c23)N[C@@H]1c1ccc(F)cc1 + Cc1cnc(CNC(=O)c2c(=O)c3ccc(N4CCCN(C)CC4)nc3n3c2sc2ccccc23)cn1
237 nM: IC50 (second compound 0.1 µM)
< 0.999 nM: IC50 (second compound 0.316 µM) | IC50 (second compound 1 µM) | IC50 (second compound 3.16 µM) | IC50 (second compound 10 µM)
> 316 nM: IC50 (second compound 0.0316 µM)
inactive: viability, T/C (second compound 0.0316 µM, first compound 0.000999 µM) 102% | viability, T/C (second compound 0.0316 µM, first compound 0.00316 µM) 99.4% | viability, T/C (second compound 0.0316 µM, first compound 0.00999 µM) 104% | viability, T/C [1] 94.8% | viability, T/C (second compound 0.0316 µM, first compound 0.0999 µM) 86.5% | viability, T/C [2] 77.9% | viability, T/C (second compound 0.1 µM, first compound 0.000999 µM) 68.2% | viability, T/C (second compound 0.1 µM, first compound 0.00316 µM) 75.2% | viability, T/C (second compound 0.1 µM, first compound 0.00999 µM) 77.9% | viability, T/C [3] 56.5% | viability, T/C (second compound 0.1 µM, first compound 0.0999 µM) 58.5% | viability, T/C [4] 48.1% | viability, T/C (second compound 0.316 µM, first compound 0.000999 µM) 40.9% | viability, T/C (second compound 0.316 µM, first compound 0.00316 µM) 53.4% | viability, T/C (second compound 0.316 µM, first compound 0.00999 µM) 44.3% | viability, T/C [5] 44.4% | viability, T/C (second compound 0.316 µM, first compound 0.0999 µM) 48.4% | viability, T/C [6] 29.5% | viability, T/C (second compound 1 µM, first compound 0.000999 µM) 28.2% | viability, T/C (second compound 1 µM, first compound 0.00316 µM) 34.9% | viability, T/C (second compound 1 µM, first compound 0.00999 µM) 27.3% | viability, T/C [7] 44.1% | viability, T/C (second compound 1 µM, first compound 0.0999 µM) 33.2% | viability, T/C [8] 33.2% | viability, T/C (second compound 3.16 µM, first compound 0.000999 µM) 34.9% | viability, T/C (second compound 3.16 µM, first compound 0.00316 µM) 27.5% | viability, T/C (second compound 3.16 µM, first compound 0.00999 µM) 26.4% | viability, T/C [9] 30.6% | viability, T/C (second compound 3.16 µM, first compound 0.0999 µM) 29% | viability, T/C [10] 33.3% | viability, T/C (second compound 10 µM, first compound 0.000999 µM) 31.2% | viability, T/C (second compound 10 µM, first compound 0.00316 µM) 27.4% | viability, T/C (second compound 10 µM, first compound 0.00999 µM) 30.1% | viability, T/C [11] 35.5% | viability, T/C (second compound 10 µM, first compound 0.0999 µM) 27.4% | viability, T/C [12] 30.2%
